Test: mn = molality of the nth substance listed, in mol/kg
Conditions: 101 kPa, Liquid; for speed of sound: Linear variable-path acoustic interferometer; for mass density: Pycnometric method

C[C@@H](O)[C@H](N)C(=O)O [L-threonine] + O
Conditions | mass density [kg/m3] | speed of sound [m/s]
275.15 K, m1 = 0.0337 | 1001.56 | 1415.3
275.15 K, m1 = 0.0672 | 1003.12 | 1418.7
275.15 K, m1 = 0.1009 | 1004.6 | 1422
275.15 K, m1 = 0.1338 | 1006.09 | 1425.3
275.15 K, m1 = 0.1674 | 1007.23 | 1428.6
275.15 K, m1 = 0.2002 | 1008.62 | 1431.8
275.15 K, m1 = 0.2334 | 1010.1 | 1435.1
275.15 K, m1 = 0.2689 | 1011.67 | 1438.6
275.15 K, m1 = 0.3009 | 1012.89 | 1441.8
275.15 K, m1 = 0.3345 | 1014.39 | 1445.1
275.15 K, m1 = 0.3679 | 1015.8 | 1448.4
275.15 K, m1 = 0.4054 | 1017.24 | 1452.2
279.15 K, m1 = 0.0337 | 1001.55 | 1433.1
279.15 K, m1 = 0.0671 | 1002.96 | 1436.2
279.15 K, m1 = 0.101 | 1004.52 | 1439.3
279.15 K, m1 = 0.1342 | 1005.69 | 1442.3
279.15 K, m1 = 0.1665 | 1006.97 | 1445.3
279.15 K, m1 = 0.2002 | 1008.49 | 1448.4
279.15 K, m1 = 0.235 | 1009.98 | 1451.6
279.15 K, m1 = 0.2673 | 1011.46 | 1454.5
279.15 K, m1 = 0.2996 | 1012.62 | 1457.5
279.15 K, m1 = 0.3683 | 1015.5 | 1463.8
279.15 K, m1 = 0.4005 | 1016.91 | 1466.8
283.15 K, m1 = 0.0224 | 1000.69 | 1449
283.15 K, m1 = 0.0677 | 1002.52 | 1453.1
283.15 K, m1 = 0.101 | 1004.25 | 1456.1
283.15 K, m1 = 0.1362 | 1005.58 | 1459.2
283.15 K, m1 = 0.1665 | 1006.81 | 1461.9
283.15 K, m1 = 0.2005 | 1008.32 | 1465
283.15 K, m1 = 0.2345 | 1009.56 | 1468.1
283.15 K, m1 = 0.2725 | 1011.21 | 1471.5
283.15 K, m1 = 0.2996 | 1012.33 | 1473.9
283.15 K, m1 = 0.3351 | 1013.76 | 1477.1
283.15 K, m1 = 0.3677 | 1015.01 | 1480
283.15 K, m1 = 0.3928 | 1016.16 | 1482.3

CC(C)[C@H](N)C(=O)O [L-valine] + O
Conditions | mass density [kg/m3] | speed of sound [m/s]
275.15 K, m1 = 0.034 | 1000.99 | 1416.5
275.15 K, m1 = 0.0672 | 1001.86 | 1420.9
275.15 K, m1 = 0.1028 | 1002.93 | 1425.7
275.15 K, m1 = 0.1349 | 1003.79 | 1429.9
275.15 K, m1 = 0.1675 | 1004.61 | 1434.3
275.15 K, m1 = 0.2021 | 1005.54 | 1438.9
275.15 K, m1 = 0.233 | 1006.4 | 1443
275.15 K, m1 = 0.2667 | 1007.34 | 1447.5
275.15 K, m1 = 0.3009 | 1008.25 | 1452
275.15 K, m1 = 0.3669 | 1009.99 | 1460.8
275.15 K, m1 = 0.4066 | 1011.08 | 1466.1
279.15 K, m1 = 0.0341 | 1000.9 | 1434.1
279.15 K, m1 = 0.0671 | 1001.87 | 1438.1
279.15 K, m1 = 0.1009 | 1002.75 | 1442.1
279.15 K, m1 = 0.1418 | 1003.8 | 1447
279.15 K, m1 = 0.1696 | 1004.51 | 1450.4
279.15 K, m1 = 0.2021 | 1005.51 | 1454.3
279.15 K, m1 = 0.2382 | 1006.36 | 1458.6
279.15 K, m1 = 0.2782 | 1007.44 | 1463.4
279.15 K, m1 = 0.2983 | 1007.95 | 1465.8
279.15 K, m1 = 0.3342 | 1008.96 | 1470.2
279.15 K, m1 = 0.3652 | 1009.77 | 1473.9
279.15 K, m1 = 0.3951 | 1010.57 | 1477.5
283.15 K, m1 = 0.0341 | 1000.61 | 1450.7
283.15 K, m1 = 0.0669 | 1001.41 | 1454.2
283.15 K, m1 = 0.1015 | 1002.33 | 1458
283.15 K, m1 = 0.1349 | 1003.08 | 1461.6
283.15 K, m1 = 0.1666 | 1004.17 | 1465
283.15 K, m1 = 0.2025 | 1005.15 | 1468.9
283.15 K, m1 = 0.2321 | 1006.04 | 1472.1
283.15 K, m1 = 0.2787 | 1007.06 | 1477.1
283.15 K, m1 = 0.297 | 1007.53 | 1479.1
283.15 K, m1 = 0.3314 | 1008.49 | 1482.8
283.15 K, m1 = 0.3663 | 1009.41 | 1486.6
283.15 K, m1 = 0.3972 | 1010.11 | 1489.9

N=C(N)NCCC[C@H](N)C(=O)O [L-arginine] + O
Conditions | mass density [kg/m3] | speed of sound [m/s]
275.15 K, m1 = 0.0381 | 1002.25 | 1416.9
275.15 K, m1 = 0.0808 | 1004.4 | 1422.5
275.15 K, m1 = 0.1223 | 1006.6 | 1427.9
275.15 K, m1 = 0.1659 | 1008.86 | 1433.5
275.15 K, m1 = 0.2092 | 1010.74 | 1439.2
275.15 K, m1 = 0.2503 | 1012.81 | 1444.5
275.15 K, m1 = 0.2909 | 1014.82 | 1449.8
275.15 K, m1 = 0.3371 | 1017.05 | 1455.8
275.15 K, m1 = 0.3742 | 1018.75 | 1460.6
275.15 K, m1 = 0.4153 | 1020.74 | 1465.9
275.15 K, m1 = 0.4529 | 1022.49 | 1470.8
275.15 K, m1 = 0.5067 | 1024.97 | 1477.8
279.15 K, m1 = 0.0381 | 1002.12 | 1434.5
279.15 K, m1 = 0.0808 | 1004.33 | 1439.6
279.15 K, m1 = 0.1225 | 1005.88 | 1444.5
279.15 K, m1 = 0.1847 | 1009.11 | 1451.9
279.15 K, m1 = 0.2092 | 1010.49 | 1454.8
279.15 K, m1 = 0.25 | 1012.51 | 1459.7
279.15 K, m1 = 0.2932 | 1014.5 | 1464.8
279.15 K, m1 = 0.3459 | 1017.1 | 1471.1
279.15 K, m1 = 0.3742 | 1018.39 | 1474.4
279.15 K, m1 = 0.4177 | 1020.39 | 1479.6
279.15 K, m1 = 0.4601 | 1022.35 | 1484.6
279.15 K, m1 = 0.5176 | 1025.01 | 1491.4
283.15 K, m1 = 0.0379 | 1001.53 | 1451.4
283.15 K, m1 = 0.0806 | 1003.83 | 1456.3
283.15 K, m1 = 0.1228 | 1005.96 | 1461.2
283.15 K, m1 = 0.1755 | 1008.59 | 1467.2
283.15 K, m1 = 0.2052 | 1009.81 | 1470.7
283.15 K, m1 = 0.2496 | 1012.14 | 1475.8
283.15 K, m1 = 0.291 | 1014.12 | 1480.5
283.15 K, m1 = 0.3386 | 1016.31 | 1486
283.15 K, m1 = 0.3757 | 1017.99 | 1490.3
283.15 K, m1 = 0.416 | 1019.92 | 1495
283.15 K, m1 = 0.4566 | 1021.75 | 1499.6
283.15 K, m1 = 0.5031 | 1023.84 | 1505

Reference: the NIST ThermoML archive (doi:10.1016/j.jct.2012.12.010)
